Reference: patent US20230017045A1, “PYRIDINE AND PYRIMIDINE CARBOXYLATE HERBICIDES AND METHODS OF USE THEREOF” (Dow AgroSciences LLC, priority 2017, published 2023)
Like-named read-outs stand apart in the source and are kept apart here.

Test system: test plant species
Test: Post-emergent herbicidal activity test (greenhouse, foliar spray, visual growth reduction)
Type: in vivo
Conditions: post-emergence, 336 h, 140 g ai/ha
Method in brief: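 Visual percent injury (0-100) rated 14 d after treatment, relative to nontreated and solvent-blank plants. Test plants at first or second true leaf stage received an overhead track-sprayer application at 187 L/ha. Compounds were formulated in aqueous acetone/DMSO carrier containing crop oil concentrate and X-77 surfactant.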

[1] = ECHCG: barnyardgrass (Echinochloa crus-galli), 14 days after application, read-out: Visual Growth Reduction (%) 14 Days After Application, ECHCG
[2] = IPOHE: ivy-leaf morning glory (Ipomoea hederacea), 14 days after application, read-out: Visual Growth Reduction (%) 14 Days After Application, IPOHE
[3] = KCHSC: kochia (Bassia scoparia), 14 days after application, read-out: Visual Growth Reduction (%) 14 Days After Application, KCHSC
[4] = ORYSA: rice (Oryza sativa), 14 days after application, read-out: Visual Growth Reduction (%) 14 Days After Application, ORYSA
[5] = SETFA: giant foxtail (Setaria faberi), 14 days after application, read-out: Visual Growth Reduction (%) 14 Days After Application, SETFA
[6] = SORVU: grain sorghum (Sorghum vulgare), 14 days after application, read-out: Visual Growth Reduction (%) 14 Days After Application, SORVU
[7] = STEME: common chickweed (Stellaria media), 14 days after application, read-out: Visual Growth Reduction (%) 14 Days After Application, STEME
[8] = TRZAS: wheat, spring (Triticum aestivum), 14 days after application, read-out: Visual Growth Reduction (%) 14 Days After Application, TRZAS
[9] = blackgrass (Alopecurus myosuroides), 14 Days After Application, read-out: Visual Growth Reduction (%) ALOMY
[10] = crabgrass (Digitaria sanguinalis), 14 Days After Application, read-out: Visual Growth Reduction (%) DIGSA
[11] = lambsquarters (Chenopodium album), 14 Days After Application, read-out: Visual Growth Reduction (%) CHEAL
[12] = redroot pigweed (Amaranthus retroflexus), 14 Days After Application, read-out: Visual Growth Reduction (%) AMARE
[13] = wild oat (Avena fatua), 14 Days After Application, read-out: Visual Growth Reduction (%) AVEFA
[14] = yellow nutsedge (Cyperus esculentus), 14 Days After Application, read-out: Visual Growth Reduction (%) CYPES
[15] = ALOMY: blackgrass (Alopecurus myosuroides), 14 days after application, read-out: Visual Growth Reduction (%) 14 Days After Application, ALOMY
[16] = AMARE: redroot pigweed (Amaranthus retroflexus), 14 days after application, read-out: Visual Growth Reduction (%) 14 Days After Application, AMARE
[17] = AVEFA: wild oat (Avena fatua), 14 days after application, read-out: Visual Growth Reduction (%) 14 Days After Application, AVEFA
[18] = CHEAL: lambsquarters (Chenopodium album), 14 days after application, read-out: Visual Growth Reduction (%) 14 Days After Application, CHEAL
[19] = CIRAR: canada thistle (Cirsium arvense), 14 days after application, read-out: Visual Growth Reduction (%) 14 Days After Application, CIRAR
[20] = CYPES: yellow nutsedge (Cyperus esculentus), 14 days after application, read-out: Visual Growth Reduction (%) 14 Days After Application, CYPES
[21] = DIGSA: crabgrass (Digitaria sanguinalis), 14 days after application, read-out: Visual Growth Reduction (%) 14 Days After Application, DIGSA

SMILES	pest or weed control at 140 g/ha [1]	pest or weed control at 140 g/ha [2]	pest or weed control at 140 g/ha [3]	pest or weed control at 140 g/ha [4]	pest or weed control at 140 g/ha [5]	pest or weed control at 140 g/ha [6]	pest or weed control at 140 g/ha [7]	pest or weed control at 140 g/ha [8]	pest or weed control at 140 g/ha [9]	pest or weed control at 140 g/ha [10]	pest or weed control at 140 g/ha [11]	pest or weed control at 140 g/ha [12]	pest or weed control at 140 g/ha [13]	pest or weed control at 140 g/ha [14]	pest or weed control at 140 g/ha [15]	pest or weed control at 140 g/ha [16]	pest or weed control at 140 g/ha [17]	pest or weed control at 140 g/ha [18]	pest or weed control at 140 g/ha [19]	pest or weed control at 140 g/ha [20]	further results
COC(=O)c1nc(-c2ccc(C(F)(F)F)c(C)c2Cl)c(F)cc1Cl [F339, Methyl 3-chloro-6-(2-chloro-3-methyl-4-(trifluoromethyl)phenyl)-5-fluoropicolinate]	0 to 29%	95 to 100%	85 to 94%	0 to 29%	0 to 29%	60 to 74%	0 to 29%	0 to 29%	0 to 29%	0 to 29%	95 to 100%	95 to 100%	0 to 29%	60 to 74%	–	–	–	–	–	–	–
COC(=O)c1nc(-c2ccc(Cl)c3ccccc23)c(F)cc1Cl [F346, Methyl 3-chloro-6-(4-chloronaphthalen-1-yl)-5-fluoropicolinate]	0 to 29%	30 to 44%	0 to 29%	0 to 29%	0 to 29%	0 to 29%	0 to 29%	0 to 29%	0 to 29%	0 to 29%	0 to 29%	0 to 29%	0 to 29%	0 to 29%	–	–	–	–	–	–	–
COC(=O)c1nc(-c2ccc(C(F)F)cc2Cl)ccc1Cl [F19, methyl 3-chloro-6-(2-chloro-4-(difluoromethyl)phenyl)picolinate]	–	–	–	–	–	–	–	–	–	–	–	–	–	–	0 to 29%	95 to 100%	0 to 29%	95 to 100%	95 to 100%	30 to 44%	pest or weed control at 140 g/ha [21]: 0 to 29%; pest or weed control at 140 g/ha (barnyardgrass (Echinochloa crus-galli), 14 Days After Application, read-out: Visual Growth Reduction (%) ECHCG): 0 to 29%; pest or weed control at 140 g/ha (common chickweed (Stellaria media), 14 Days After Application, read-out: Visual Growth Reduction (%) STEME): 0 to 29%; pest or weed control at 140 g/ha (giant foxtail (Setaria faberi), 14 Days After Application, read-out: Visual Growth Reduction (%) SETFA): 0 to 29%; pest or weed control at 140 g/ha (ivy-leaf morning glory (Ipomoea hederacea), 14 Days After Application, read-out: Visual Growth Reduction (%) IPOHE): 95 to 100%; pest or weed control at 140 g/ha (johnsongrass (Sorghum vulgare), 14 Days After Application, read-out: Visual Growth Reduction (%) SORVU): 30 to 44%; pest or weed control at 140 g/ha (kochia (Bassia scoparia), 14 Days After Application, read-out: Visual Growth Reduction (%) KCHSC): 85 to 94%; pest or weed control at 140 g/ha (rice (Oryza sativa), 14 Days After Application, read-out: Visual Growth Reduction (%) ORYSA): 0 to 29%; pest or weed control at 140 g/ha (wheat, spring (Triticum aestivum), 14 Days After Application, read-out: Visual Growth Reduction (%) TRZAS): 0 to 29%
O=C(O)c1nc(-c2c(Cl)cc(C(F)(F)F)cc2Cl)ccc1Cl [F156, 3-Chloro-6-(2,6-dichloro-4-(trifluoromethyl)phenyl)picolinic acid]	75 to 84%	95 to 100%	85 to 94%	45 to 59%	95 to 100%	75 to 84%	0 to 29%	60 to 74%	–	–	–	–	–	–	45 to 59%	95 to 100%	0 to 29%	85 to 94%	75 to 84%	0 to 29%	pest or weed control at 140 g/ha [21]: 85 to 94%
COC(=O)c1nc(-c2ccc(Cl)c(C(F)F)c2F)ccc1Cl [F273, Methyl 3-chloro-6-(4-chloro-3-(difluoromethyl)-2-fluorophenyl) picolinate]	0 to 29%	75 to 84%	0 to 29%	0 to 29%	0 to 29%	75 to 84%	0 to 29%	0 to 29%	0 to 29%	60 to 74%	75 to 84%	0 to 29%	0 to 29%	0 to 29%	–	–	–	–	–	–	pest or weed control at 140 g/ha (canada thistle (Cirsium arvense), 14 Days After Application, read-out: Visual Growth Reduction (%) CIRAR): 30 to 44%
